Assay results from US20150005288A1, “SUBSTITUTED PHENYLIMIDAZOPYRAZOLES AND USE THEREOF” (Bayer Intellectual Property GmbH, priority 2012, published 2015).
pIC50: −log10 of the molar value.

Columns and labels:
[1] = molecular target: T1, intracellular domain of human Tie2 (GST fusion protein) (Homo sapiens, UniProt Q02763); experiment: Tie2 kinase assay (Tie2-TR-FRET); assay type: biochemical; details: ATP concentration 1 mM, in some cases means of several independent determinations
T1 construct: intracellular domain of human Tie2 (amino acids 776-1124); made in house; host or cells: Baculovirus-infected insect cells (Hi5)
T1 sequence (Q02763 776-1124): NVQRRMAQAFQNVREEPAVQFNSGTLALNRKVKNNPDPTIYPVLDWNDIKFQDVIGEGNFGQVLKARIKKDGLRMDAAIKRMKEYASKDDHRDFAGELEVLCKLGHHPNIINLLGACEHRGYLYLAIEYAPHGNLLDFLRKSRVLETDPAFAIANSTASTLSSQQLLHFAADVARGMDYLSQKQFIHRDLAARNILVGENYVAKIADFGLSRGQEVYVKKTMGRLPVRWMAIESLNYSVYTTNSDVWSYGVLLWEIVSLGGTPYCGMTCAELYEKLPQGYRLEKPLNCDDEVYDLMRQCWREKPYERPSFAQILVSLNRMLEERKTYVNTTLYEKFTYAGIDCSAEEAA
Summary of the method: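 High ATP (1 mM final) with 1 μM biotin-peptide substrate; reaction 60 min at 22 °C after 15 min compound pre-binding to GST-Tie2 (aa 776-1124) in HEPES pH 7 with Mg/Mn. Phosphopeptide detected by TR-FRET emission ratio 665/620 nm. IC50 from 4-parameter fit over 20 μM to 0.073 nM, duplicates.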

[2] = molecular target: T2, endogenous Tie2 receptor (Homo sapiens, UniProt Q02763); experiment: Tie2-pTyr-ELISA: autophosphorylation of endogenous Tie2 receptor in HUVEC; assay type: cell-based; details: autophosphorylation elevated by sodium orthovanadate (4 mM), Tie2/phosphotyrosine sandwich ELISA, from 2-7 independent measurements
T2 construct: the endogenous Tie2 receptor; host or cells: HUVEC (human umbilical vein endothelial cells)
T2 sequence (Q02763 23-1124): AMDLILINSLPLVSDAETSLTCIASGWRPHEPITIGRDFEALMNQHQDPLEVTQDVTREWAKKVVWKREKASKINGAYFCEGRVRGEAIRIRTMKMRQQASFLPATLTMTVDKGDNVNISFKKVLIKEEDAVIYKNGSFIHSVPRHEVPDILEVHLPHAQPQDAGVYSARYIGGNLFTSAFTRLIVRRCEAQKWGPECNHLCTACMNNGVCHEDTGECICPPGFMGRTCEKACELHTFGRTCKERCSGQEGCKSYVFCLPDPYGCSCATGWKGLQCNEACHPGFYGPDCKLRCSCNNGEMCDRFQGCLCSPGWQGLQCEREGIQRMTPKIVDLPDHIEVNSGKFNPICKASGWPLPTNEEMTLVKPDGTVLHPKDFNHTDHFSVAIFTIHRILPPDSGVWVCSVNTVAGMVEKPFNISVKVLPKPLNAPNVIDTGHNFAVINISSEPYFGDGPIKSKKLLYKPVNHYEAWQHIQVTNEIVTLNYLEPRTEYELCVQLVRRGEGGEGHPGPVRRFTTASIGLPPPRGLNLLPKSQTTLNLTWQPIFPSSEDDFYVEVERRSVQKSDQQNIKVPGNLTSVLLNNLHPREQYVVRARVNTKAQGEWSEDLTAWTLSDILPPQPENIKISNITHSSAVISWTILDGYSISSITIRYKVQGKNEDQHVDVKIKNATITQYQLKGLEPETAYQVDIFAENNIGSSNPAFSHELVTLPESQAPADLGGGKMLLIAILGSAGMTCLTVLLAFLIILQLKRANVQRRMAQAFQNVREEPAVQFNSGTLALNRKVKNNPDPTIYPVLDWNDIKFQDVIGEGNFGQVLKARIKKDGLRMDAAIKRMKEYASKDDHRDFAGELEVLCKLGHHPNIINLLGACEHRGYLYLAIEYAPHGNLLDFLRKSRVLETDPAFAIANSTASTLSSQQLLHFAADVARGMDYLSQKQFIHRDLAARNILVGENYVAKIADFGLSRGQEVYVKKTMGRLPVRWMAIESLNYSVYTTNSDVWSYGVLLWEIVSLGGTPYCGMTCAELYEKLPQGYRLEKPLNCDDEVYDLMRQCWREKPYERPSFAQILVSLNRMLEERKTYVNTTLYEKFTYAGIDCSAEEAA
Description: The cellular activity of the compounds according to the invention as Tie2 kinase inhibitors was determined in human endothelial cells (HUVEC) by measuring the inhibition of the autophosphorylation, elevated by treatment with sodium orthovanadate, of the endogenous Tie2 receptor by means of a Tie2/phosphotyrosine sandwich ELISA.
Human endothelial cells (human umbilical vein endothelial cells, HUVEC) were obtained from Cellsystems (FC-0003), cultured in Vasculife VEGF complete medium (Cellsystems, LL-1020) with 2% foetal calf serum (FCS) at 37° C./5% CO2 and used for Tie2-ELISA measurements up to passage 8.
HUVEC were plated in a culture volume of 100 μl of Vasculife VEGF complete medium at a cell density of 30 000 cells per well in transparent collagen-coated 96-well cell culture plates (Falcon, #353075) and incubated in an incubation cabinet at 37° C./5% CO2 overnight. The test substances dissolved in DMSO were used to prepare in each case one dilution series in Vasculife VEGF low-serum medium [basal medium with LifeFactors (Cellsystems, LM-0002), without FCS, with 0.1% BSA] without sodium orthovanadate and one dilution series in Vasculife VEGF low-serum-medium with 8 mM sodium orthovanadate in the desired concentrations in the range from 10 pM to 10 μM, the final DMSO concentration being 1%. After removal of the complete medium, 100 μl per well of the dilute substances in low-serum medium without sodium orthovanadate were pipetted onto the cells, and the plates were incubated in an incubation cabinet at 37° C./5% CO2 for 10 min. A further 100 μl of the same substance dilution in low-serum medium with 8 mM sodium orthovanadate were then pipetted into the respective well and the cells were incubated in a volume of now 200 μl in the presence of 4 mM sodium orthovanadate at the desired substance concentration in an incubation cabinet at 37° C./5% CO2 for a further 20 min. The cell supernatant of the plates was then removed and the cells were washed once with 250 μl per well of cold PBS which contained 4 mM sodium orthovanadate. 120 μl of Duschl lysis buffer [50 mM HEPES pH 7.2, 150 mM NaCl, 1 mM MgCl2, 10% glycerol, 1.5% Triton X-100, 4 mM sodium orthovanadate, 250 μl S-PIC phosphatase inhibitor cocktail 2 (Sigma, P5726) and 1 tablet of Complete proteinase inhibitor mixture (Roche, #1836145) per 10 ml] were then added to the cells in each well. The plates were shaken briefly and then incubated on ice for 20 min, and the lysates in the cell culture plates were then frozen at −80° C. for at least 30 min.
For measuring the autophosphorylation of the endogenous Tie2 receptor in the cell lysates prepared, a self-prepared anti-Tie2 antibody directed against the N-terminus of the Tie-2 receptor (1.09 mg/ml) and an HRP-coupled anti-phosphotyrosine antibody (Sigma, A4595, clone pY-20) were used. White 96-well ELISA plates (Lumitrac600, Greiner, #655074) were incubated with 100 μl per well of a 1:1000 dilution of the anti-Tie2 antibody in coating buffer [15 mM Na2CO3, 35 mM NaHCO3, pH 9.6] with shaking at 4° C. overnight. The coated ELISA plates were washed three times with 250 μl PBST buffer [0.1% Tween-20 in PBS], the wells were blocked with 250 μl 3% BSA in PBST buffer with shaking at RT for 1-6 h and washed three more times with 250 μl PBST buffer. From the cell lysate plates thawed in the fridge, in each case 100 μl of lysate were transferred into the coated wells of the ELISA plates, and the plates were incubated with shaking at 4° C. overnight. The plates were washed three times with in each case 250 μl of PBST buffer, and 100 μl of a 1:5000 dilution of the anti-phosphotyrosine HRP antibody in 3% Prionex (Calbiochem, #529600) in PBST were then pipetted into each well and the plates were incubated with shaking and protected from light at 4° C. overnight. […]

Row | Structure (SMILES) | pIC50 [1] | pIC50 [2]
1 | Cc1ccc(NC(=O)c2cc(N3CCN(C)CC3)cc(S(F)(F)(F)(F)F)c2)cc1-n1ccn2nc(-c3cn[nH]c3)cc12 [Example 2, 3-(4-Methylpiperazin-1-yl)-N-{4-methyl-3-[6-(1H-pyrazol-4-yl)-1H-imidazo[1,2-b]pyrazol-1-yl]-phenyl}-5-(pentafluoro-λ^6-sulphanyl)benzamide] | 8.22 | 8.12
2 | Cc1ccc(NC(=O)c2cc(N3CCOCC3)cc(S(F)(F)(F)(F)F)c2)cc1-n1ccn2nc(-c3cn[nH]c3)cc12 [Example 3, N-{4-Methyl-3-[6-(1H-pyrazol-4-yl)-1H-imidazo[1,2-b]pyrazol-1-yl]phenyl}-3-(morpholin-4-yl)-5-(pentafluoro-λ^6-sulphanyl)benzamide] | 8.92 | 8.47
3 | Cc1ccc(NC(=O)c2cc(C(C)(C)O)cc(S(F)(F)(F)(F)F)c2)cc1-n1ccn2nc(-c3cn[nH]c3)cc12 [Example 4, 3-(2-Hydroxypropan-2-yl)-N-{4-methyl-3-[6-(1H-pyrazol-4-yl)-1H-imidazo[1,2-b]pyrazol-1-yl]-phenyl}-5-(pentafluoro-λ^6-sulphanyl)benzamide] | 9.22 | 8.33
4 | Cc1ccc(NC(=O)c2cc(-n3ccnc3C)cc(C(F)(F)F)c2)cc1-n1ccn2nc(-c3cn[nH]c3)cc12 [Example 6, 3-(2-Methyl-1H-imidazol-1-yl)-N-{4-methyl-3-[6-(1H-pyrazol-4-yl)-1H-imidazo[1,2-b]pyrazol-1-yl]phenyl}-5-(trifluoromethyl)benzamide] | 8.30 | 7.77
5 | Cc1ccc(NC(=O)c2cc(C#N)cc(S(F)(F)(F)(F)F)c2)cc1-n1cc(C)n2nc(-c3cn[nH]c3)cc12 [Example 12, 3-Cyano-N-{4-methyl-3-[3-methyl-6-(1H-pyrazol-4-yl)-1H-imidazo[1,2-b]pyrazol-1-yl]phenyl}-5-(pentafluoro-λ^6-sulphanyl)benzamide] | 9.15 | 8.33
6 | Cc1ccc(NC(=O)c2cc(-n3ccnc3C)cc(S(F)(F)(F)(F)F)c2)cc1-n1ccn2nc(-c3cccnc3)cc12 [Example 16, 3-(2-Methyl-1H-imidazol-1-yl)-N-{4-methyl-3-[6-(pyridin-3-yl)-1H-imidazo[1,2-b]pyrazol-1-yl]-phenyl}-5-(pentafluoro-λ^6-sulphanyl)benzamide] | 9.15 | 8.49
7 | Cc1ccc(NC(=O)c2cc(N3CCN(C)CC3)cc(S(F)(F)(F)(F)F)c2)cc1-n1ccn2nc(-c3cccnc3)cc12 [Example 18, 3-(4-Methylpiperazin-1-yl)-N-{4-methyl-3-[6-(pyridin-3-yl)-1H-imidazo[1,2-b]pyrazol-1-yl]-phenyl}-5-(pentafluoro-λ^6-sulphanyl)benzamide] | 9.15 | 7.96
8 | Cc1ccc(NC(=O)c2cc(S(C)(=O)=O)cc(S(F)(F)(F)(F)F)c2)cc1-n1ccn2nc(-c3cccnc3)cc12 [Example 26, N-{4-Methyl-3-[6-(pyridin-3-yl)-1H-imidazo[1,2-b]pyrazol-1-yl]phenyl}-3-(methylsulphonyl)-5-(pentafluoro-λ^6-sulphanyl)benzamide] | 9.10 | 8.52
9 | Cc1ccc(NC(=O)c2cc(C#N)cc(S(F)(F)(F)(F)F)c2)cc1-n1ccn2nc(-c3cccnc3)cc12 [Example 28, 3-Cyano-N-{4-methyl-3-[6-(pyridin-3-yl)-1H-imidazo[1,2-b]pyrazol-1-yl]phenyl}-5-(pentafluoro-λ^6-sulphanyl)benzamide] | 8.68 | 8.44
10 | Cc1ccc(NC(=O)c2cc(C(C)(C)O)cc(S(F)(F)(F)(F)F)c2)cc1-n1ccn2nc(-c3cccnc3)cc12 [Example 32, 3-(2-Hydroxypropan-2-yl)-N-{4-methyl-3 [6-(pyridin-3-yl)-1H-imidazo[1,2-b]pyrazol-1-yl]-phenyl}-5-(pentafluoro-λ^6-sulphanyl)benzamide] | 9.40 | 8.68
11 | Cc1ccc(NC(=O)c2cc(-n3ccnc3C)cc(C(F)(F)F)c2)cc1-n1ccn2nc(-c3cccnc3)cc12 [Example 40, 3-(2-Methyl-1H-imidazol-1-yl)-N-{4-methyl-3-[6-(pyridin-3-yl)-1H-imidazo[1,2-b]pyrazol-1-yl]-phenyl}-5-(trifluoromethyl)benzamide] | 9.30 | 8.64
12 | Cc1ccc(NC(=O)c2cc(N3CCN(C)CC3)cc(C(C)(C)C)c2)cc1-n1ccn2nc(-c3cccnc3)cc12 [Example 48, 3-tert-Butyl-5-(4-methylpiperazin-1-yl)-N-{4-methyl-3-[6-(pyridin-3-yl)-1H-imidazo[1,2-b]-pyrazol-1-yl]phenyl}benzamide] | 9.52 | 8.19
13 | Cc1ccc(NC(=O)c2cc(CN3CCCC3)cc(C(C)(C)C)c2)cc1-n1ccn2nc(-c3cccnc3)cc12 [Example 51, 3-tert-Butyl-N-{4-methyl-3-[6-(pyridin-3-yl)-1H-imidazo[1,2-b]pyrazol-1-yl]phenyl}-5-(pyrrolidin-1-ylmethyl)benzamide] | 9.15 | 8.06
14 | CNc1cc(C(=O)Nc2ccc(C)c(-n3ccn4nc(-c5cccnc5)cc34)c2)cc(C(C)(C)C)n1 [Example 66, 2-tert-Butyl-6-(methylamino)-N-{4-methyl-3-[6-(pyridin-3-yl)-1H-imidazo[1,2-b]pyrazol-1-yl]-phenyl}isonicotinamide] | 8.10 | 7.34
15 | Cc1cc(C)c(-n2ccn3nc(-c4cccnc4)cc23)cc1NC(=O)c1cccc(S(F)(F)(F)(F)F)c1 [Example 73, N-{2,4-Dimethyl-5-[6-(pyridin-3-yl)-1H-imidazo[1,2-b]pyrazol-1-yl]phenyl}-3-(pentafluoro-λ^6-sulphanyl)benzamide] | 9.52 | 9.10
16 | Cc1cc(C)c(-n2ccn3nc(-c4cccnc4)cc23)cc1NC(=O)c1cc(C#N)cc(S(F)(F)(F)(F)F)c1 [Example 74, 3-Cyano-N-{2,4-dimethyl-5-[6-(pyridin-3-yl)-1H-imidazo[1,2-b]pyrazol-1-yl]phenyl}-5-(pentafluoro-λ^6-sulphanyl)benzamide] | 9.30 | 9.22
17 | Cc1cc(F)c(NC(=O)c2cc(C#N)cc(S(F)(F)(F)(F)F)c2)cc1-n1ccn2nc(-c3cccnc3)cc12 [Example 75, 3-Cyano-N-{2-fluoro-4-methyl-5-[6-(pyridin-3-yl)-1H-imidazo[1,2-b]pyrazol-1-yl]phenyl}-5-(pentafluoro-λ^6-sulphanyl)benzamide] | 9.30 | 8.77
18 | Cc1ccc(-n2ccn3nc(-c4cccnc4)cc23)cc1NC(=O)c1cc(C#N)cc(S(F)(F)(F)(F)F)c1 [Example 77] | 7.89 | 8.06
19 | Cc1ccc(NC(=O)c2cc(F)cc(S(F)(F)(F)(F)F)c2)cc1-n1ccn2nc(-c3cccnc3)cc12 [Example 88, 3-Fluoro-N-{4-methyl-3-[6-(pyridin-3-yl)-1H-imidazo[1,2-b]pyrazol-1-yl]phenyl}-5-(pentafluoro-λ^6-sulphanyl)benzamide] | 7.64 | 7.39
